Data: patent US20140163061A1, “Methods For Reducing Blood Pressure” (FibroGen, Inc., priority 2008, published 2014)

Test system: Nx rats (5/6 nephrectomy, hypertensive chronic kidney disease)
Assay: Nx rats treated with various HIF prolyl hydroxylase inhibitors, change in systolic blood pressure after four weeks, Example 4
Format: in vivo, rat
Procedure: A characteristic pathophysiology found in the uremic chronic kidney disease (CKD) population is hypertension. […] (Priyadarshi et al. (2002) Kidney Int 61:542-546; Coleman et al. (2006) Proc Natl Acad Sci USA 103:5965-5970.) The surgical procedure used to generate the rat remnant kidney was performed according to modification of the procedure described by Priyadarshi et al. (supra) or according to modification of the procedure described by Tanaka et al. (2005, Lab Invest 85:1292-1307). Separate studies used either male Sprague Dawley rats (280-300 g) or female Wistar rats (220-250 g).
Animals were divided into two groups of which one group (sham) underwent sham surgery and the other group (Nx) was subjected to 5/6 nephrectomy as follows. Animals were anesthetized under isoflurane, and a midline abdominal incision was made, followed by blunt dissection of the renal pedicles. Two or three branches of the left renal artery were ligated to infarct two thirds of the left kidney, while the right kidney underwent simultaneous nephrectomy. The infarct was verified by observing the change in kidney color. Animal body temperature was maintained constant, and warm (˜37° C.) saline (1.0 mL) was administered directly into the abdomen. Thereafter, the incision was sutured and the animal was allowed to recover and have free access to regular food and water. Animal body weight and mortality were closely monitored.
Starting 35 days after surgery, Nx and sham animals were randomly divided into groups and treated with either vehicle or compound A. Compound was dosed three times per week by oral gavage at 20 or 40 mg/kg compound per dose. Blood pressure (BP) was measured using a Kent XBP1000 system (Kent Scientific Corp., Torrington, Conn.) or a Muromachi tail-cuff blood pressure system (Muromachi Kikai Co., Ltd., Tokyo, Japan), both having volume/pressure recording technology and used according to the manufacturer's instruction. Rats were slightly warmed under a lamp and conditioned carefully before the measurement. BP was recorded as the mean value of 3 separate measurements obtained at each session and reported herein as mean±SEM. Results are compared using 1-way analysis of variance (ANOVA) and Student-Newman-Keuls method (SigmaStat, SPSS Science, Chicago, Ill.).
In another series of experiments, rats subjected to 5/6 nephrectomy were treated 35 days after surgery according to the dosing schedule described in Example 3 above with a HIF prolyl hydroxylase inhibitor. Individual compound selected from the group consisting of compounds A and C-K were administered by oral gavage at 8, 20, 30, or 40 mg/kg (see Table 1 and Table 2). Systolic blood pressure was recorded at day 35 (baseline) and again immediately following the last dose of compound. Table 1 and Table 2 show changes in systolic blood pressure following four weeks of oral administration of various compounds of the present invention to Nx rats.

SMILES | SBP (mmHg) Change from Vehicle (8 mg/kg oral) [mmHg] | SBP (mmHg) Change from Vehicle (20 mg/kg oral) [mmHg] | other results
COc1ccc(Oc2ccc3c(O)c(C(=O)NCC(=O)O)ncc3c2)cc1 [C, {[4-hydroxy-7-(4-methoxy-phenoxy)-isoquinoline-3-carbonyl]-amino}-acetic acid] |  |  | SBP (mmHg) Change from Baseline (30 mg/kg oral): −13.72 mmHg; SBP (mmHg) Change from Vehicle (30 mg/kg oral): −34.03 mmHg
CC(C)Oc1ccc2c(O)c(C(=O)NCC(=O)O)nc(C#N)c2c1 [Compound D, [(1-cyano-4-hydroxy-7-isopropoxy-isoquinoline-3-carbonyl)-amino]-acetic acid] | −12.4 | −24.73 | SBP (mmHg) Change from Baseline (8 mg/kg oral): −22.14 mmHg; SBP (mmHg) Change from Baseline (20 mg/kg oral): −9.25 mmHg
COc1cccc(Cn2ccc3c(O)c(C(=O)NCC(=O)O)nc(C#N)c32)c1 [E, {[7-cyano-4-hydroxy-1-(3-methoxy-benzyl)-1H-pyrrolo[2,3-c]pyridine-5-carbonyl]-amino}-acetic acid] |  | −18.55 | SBP (mmHg) Change from Baseline (20 mg/kg oral): −7.12 mmHg
N#Cc1nc(C(=O)NCC(=O)O)c(O)c2ccn(Cc3ccc4ccccc4c3)c12 [F, [(7-cyano-4-hydroxy-1-naphthalen-2-ylmethyl-1H-pyrrolo[2,3-c]pyridine-5-carbonyl)-amino]-acetic acid] | −23.88 |  | SBP (mmHg) Change from Baseline (8 mg/kg oral): −10.58 mmHg
N#Cc1nc(C(=O)NCC(=O)O)c(O)c2ccn(Cc3ccccc3F)c12 [G, {[7-cyano-1-(2-fluoro-benzyl)-4-hydroxy-1H-pyrrolo[2,3-c]pyridine-5-carbonyl]-amino}-acetic acid] | −19.27 |  | 
COc1ccc(Cn2c(Cl)c(Cl)c3c(O)c(C(=O)NCC(=O)O)nc(C#N)c32)cc1 [H, {[2,3-dichloro-7-cyano-4-hydroxy-1-(4-methoxy-benzyl)-1H-pyrrolo[2,3-c]pyridine-5-carbonyl]-amino}-acetic acid] |  | −15.73 | 
N#Cc1nc(C(=O)NCC(=O)O)c(O)c2c(Oc3ccccc3)cccc12 [I, [(1-cyano-4-hydroxy-5-phenoxy-isoquinoline-3-carbonyl)-amino]-acetic acid] |  | −11.00 | 
Cc1cccc(C)c1Oc1ccc2c(O)c(C(=O)NCC(=O)O)nc(C#N)c2c1 [J, {[1-cyano-7-(2,6-dimethyl-phenoxy)-4-hydroxy-isoquinoline-3-carbonyl]-amino}-acetic acid] | −2.66 |  | 
COc1ccc(Cn2cc(Br)c3c(O)c(C(=O)NCC(=O)O)nc(C#N)c32)cc1 [K, {[3-bromo-7-cyano-4-hydroxy-1-(4-methoxy-benzyl)-1H-pyrrolo[2,3-c]pyridine-5-carbonyl]-amino}-acetic acid] | −19.92 |  | 
